This note sets out measurements from patent US20210290741A1, “COMPOSITIONS FOR THE TREATMENT OF GRAFT VERSUS HOST DISEASE” (DA VOLTERRA, priority 2018, published 2021).

The test concerns acute Graft vs Host disease. Briefly: Acute graft vs host disease after bone marrow + T cell transplant in lethally irradiated mice, survival (Example 5). Type of test: in vivo, mice (129, female). To be noted: 129 mice, C57BL/6 bone marrow + T cells at day 0, imipenem 100 mg/kg s.c. 3 times a week day 10-21, activated charcoal 14.4 mg/g in food day 9-22.

Experimental: 30 mice (129, female) were lethally irradiated and transplanted with 5 million C57BL/6 T-cell depleted bone marrow cells as well as 1 million C57BL/6 splenic T cells at day 0.
The mice were then split in 3 groups. In group A, they received no further treatment. In group B, an imipenem treatment was initiated at day 10. It consisted of an administration of imipenem (100 mg/kg), 3 times a week by subcutaneous route. The imipenem treatment was stopped at day 21. In group C, the same imipenem treatment as group B was performed. In addition, group C mice received activated charcoal (14.4 mg/g) mixed with their food in a hydrogel every day from day 9 to day 22.
The clinical status of the mice was monitored every day from day 1 to day 21.

`C[C@@H](O)[C@H]1C(=O)N2C(C(=O)O)=C(SCCN=CN)C[C@H]12` [imipenem]: the “Survival at day 21” value is on record as 60%.
